Experimental data published in PMC6440567 (Clinical and Translational Science, 2018).

Legend:
[1] = Individual predicted steady‐state exposures; assay type: in vivo, human; settings: for AUC / Cmax: human, plasma; for AUC: AUCss,0–24 geometric mean (CV)
[2] = system: OAT3; settings: in vitro; cited from earlier work
[3] = Final avibactam PopPK model; assay type: in vivo, human; settings: for clearance: human, plasma, intravenous
[4] = system: organic anion transporter 1 (OAT1); settings: in vitro; cited from earlier work
[5] = system: ceftazidime‐resistant Enterobacteriaceae; settings: cited from earlier work
[6] = taken to be; ref not given; cited from earlier work
[7] = system: ceftazidime‐resistant P. aeruginosa; settings: thigh and lung infection; cited from earlier work
[8] = non‐Chinese, non‐Japanese Asians vs other racial origins

NC(=O)[C@@H]1CC[C@@H]2CN1C(=O)N2OS(=O)(=O)O [Avibactam, avibactam]
AUC ([1]; Age (years) 18–65): 131 µg·h/mL | AUC ([1]; Age (years) > 65–75): 156 µg·h/mL | AUC ([1]; Age (years) > 75–89): 180 µg·h/mL | AUC ([1]; Asian population: China (only)): 153 µg·h/mL | AUC ([1]; Asian population: Japan): 164 µg·h/mL | AUC ([1]; Baseline WBC count Missing): 147 µg·h/mL | AUC ([1]; Concomitant use of OAT1/OAT3 inhibitor(s): No): 142 µg·h/mL | AUC ([1]; Concomitant use of OAT1/OAT3 inhibitor(s): Yes): 150 µg·h/mL | AUC ([1]; Fever at baseline: Missing): 132 µg·h/mL | AUC ([1]; Fever at baseline: No): 146 µg·h/mL | AUC ([1]; Fever at baseline: Yes): 134 µg·h/mL | AUC ([1]; Obesity I (29.9 ≤ BMI < 34.9 kg/m^2)): 136 µg·h/mL | AUC ([1]; Obesity II (34.9 ≤ BMI < 39.9 kg/m^2)): 141 µg·h/mL | AUC ([1]; Obesity III (BMI ≥ 39.9 kg/m^2)): 115 µg·h/mL | AUC ([1]; Obesity: Missing): 172 µg·h/mL | AUC ([1]; Obesity: Normal): 144 µg·h/mL | AUC ([1]; Race: Asian (non‐Chinese; non‐Japanese)): 166 µg·h/mL | AUC ([1]; Race: Chinese and Taiwanese): 151 µg·h/mL | AUC ([1]; Race: Japanese): 164 µg·h/mL | AUC ([1]; Race: White/other): 135 µg·h/mL | Cmax ([1]; C max,ss geometric mean (CV), Age (years) 18–65): 12500 ng/mL | Cmax ([1]; C max,ss geometric mean (CV), Age (years) > 65–75): 13200 ng/mL | Cmax ([1]; C max,ss geometric mean (CV), Age (years) > 75–89): 14000 ng/mL | Cmax ([1]; C max,ss geometric mean (CV), Asian population: China (only)): 14900 ng/mL | Cmax ([1]; C max,ss geometric mean (CV), Asian population: Japan): 16100 ng/mL | Cmax ([1]; C max,ss geometric mean (CV), Asian population: Korea): 13000 ng/mL | Cmax ([1]; C max,ss geometric mean (CV), Concomitant use of OAT1/OAT3 inhibitor(s): No): 12800 ng/mL | Cmax ([1]; C max,ss geometric mean (CV), Concomitant use of OAT1/OAT3 inhibitor(s): Yes): 13700 ng/mL | Cmax ([1]; C max,ss geometric mean (CV), Fever at baseline: Missing): 11800 ng/mL | Cmax ([1]; C max,ss geometric mean (CV), Fever at baseline: No): 12900 ng/mL | Cmax ([1]; C max,ss geometric mean (CV), Fever at baseline: Yes): 12200 ng/mL | Cmax ([1]; C max,ss geometric mean (CV), Obesity I (29.9 ≤ BMI < 34.9 kg/m^2)): 12000 ng/mL | Cmax ([1]; C max,ss geometric mean (CV), Obesity II (34.9 ≤ BMI < 39.9 kg/m^2)): 13200 ng/mL | Cmax ([1]; C max,ss geometric mean (CV), Obesity III (BMI ≥ 39.9 kg/m^2)): 9700 ng/mL | Cmax ([1]; C max,ss geometric mean (CV), Obesity: Missing): 14200 ng/mL | Cmax ([1]; C max,ss geometric mean (CV), Obesity: Normal): 13000 ng/mL | Cmax ([1]; C max,ss geometric mean (CV), Race: Asian (non‐Chinese; non‐Japanese)): 14900 ng/mL | Cmax ([1]; C max,ss geometric mean (CV), Race: Chinese and Taiwanese): 14700 ng/mL | Cmax ([1]; C max,ss geometric mean (CV), Race: Japanese): 16100 ng/mL | Cmax ([1]; C max,ss geometric mean (CV), Race: White/other): 12000 ng/mL | Cmax ([1]; intravenous): 12700 ng/mL | AUC ([1]; intravenous, 187.5 mg, Day 3 CrCL 8–15 mL/min (750‐187.5 mg q24 h)): 86.3 µg·h/mL | Cmax ([1]; intravenous, 187.5 mg, C max,ss geometric mean (CV), Day 3 CrCL 8–15 mL/min (750‐187.5 mg q24 h)): 6300 ng/mL | AUC ([1]; intravenous, 500 mg, Day 3 CrCL > 150–180 mL/min (2000‐500 mg q8 h)): 103 µg·h/mL | Cmax ([1]; intravenous, 500 mg, C max,ss geometric mean (CV), Day 3 CrCL > 150–180 mL/min (2000‐500 mg q8 h)): 9900 ng/mL | AUC ([1]; intravenous, Asian population: Korea): 144 µg·h/mL | AUC ([1]; intravenous, Asian population: Taiwan): 115 µg·h/mL | AUC ([1]; intravenous, Asian population: Vietnam): 146 µg·h/mL | AUC ([1]; intravenous, Bacteremia at baseline: No): 141 µg·h/mL | AUC ([1]; intravenous, Bacteremia at baseline: Yes): 161 µg·h/mL | AUC ([1]; intravenous, Baseline APACHE II score > 10): 170 µg·h/mL | AUC ([1]; intravenous, Baseline APACHE II score Missing): 138 µg·h/mL | AUC ([1]; intravenous, Baseline APACHE II score ≤ 10): 131 µg·h/mL | AUC ([1]; intravenous, Baseline WBC count (cells/μL) > 12,000): 136 µg·h/mL | AUC ([1]; intravenous, Baseline WBC count (cells/μL) ≤ 12,000): 145 µg·h/mL | AUC ([1]; intravenous, Patient population: NP): 169 µg·h/mL | AUC ([1]; intravenous, Patient population: Non‐VAP): 183 µg·h/mL | AUC ([1]; intravenous, Patient population: VAP): 146 µg·h/mL | AUC ([1]; intravenous, Patient population: cIAI): 132 µg·h/mL | AUC ([1]; intravenous, Patient population: cUTI): 138 µg·h/mL | AUC ([1]; intravenous, SIRS at baseline: Missing): 129 µg·h/mL | AUC ([1]; intravenous, SIRS at baseline: No): 143 µg·h/mL | AUC ([1]; intravenous, SIRS at baseline: Yes): 142 µg·h/mL | Cmax ([1]; intravenous, C max,ss geometric mean (CV), Asian population: Taiwan): 10200 ng/mL | Cmax ([1]; intravenous, C max,ss geometric mean (CV), Asian population: Vietnam): 14600 ng/mL | Cmax ([1]; intravenous, C max,ss geometric mean (CV), Bacteremia at baseline: No): 12600 ng/mL | Cmax ([1]; intravenous, C max,ss geometric mean (CV), Bacteremia at baseline: Yes): 14200 ng/mL | Cmax ([1]; intravenous, C max,ss geometric mean (CV), Baseline APACHE II score > 10): 14300 ng/mL | Cmax ([1]; intravenous, C max,ss geometric mean (CV), Baseline APACHE II score Missing): 12100 ng/mL | Cmax ([1]; intravenous, C max,ss geometric mean (CV), Baseline WBC count (cells/μL) > 12,000): 12500 ng/mL | Cmax ([1]; intravenous, C max,ss geometric mean (CV), Baseline WBC count (cells/μL) ≤ 12,000): 12800 ng/mL | Cmax ([1]; intravenous, C max,ss geometric mean (CV), Patient population: NP): 14200 ng/mL | Cmax ([1]; intravenous, C max,ss geometric mean (CV), Patient population: Non‐VAP): 15500 ng/mL | Cmax ([1]; intravenous, C max,ss geometric mean (CV), Patient population: VAP): 12000 ng/mL | Cmax ([1]; intravenous, C max,ss geometric mean (CV), Patient population: cIAI): 12800 ng/mL | Cmax ([1]; intravenous, C max,ss geometric mean (CV), Patient population: cUTI): 12100 ng/mL | Cmax ([1]; intravenous, C max,ss geometric mean (CV), SIRS at baseline: Missing): 12100 ng/mL | Cmax ([1]; intravenous, C max,ss geometric mean (CV), SIRS at baseline: No): 12800 ng/mL | Cmax ([1]; intravenous, C max,ss geometric mean (CV), SIRS at baseline: Yes): 12600 ng/mL | difference in steady‐state exposure vs. healthy volunteers ([1]; most patient subgroups): ≤ 20% | lower C max,ss ([1]; patients with VAP vs non‐VAP patients): ~ 20% | transporter substrate [2]: substrate | lower V c ([3]; 10th percentile of body weight (51 kg) vs median weight (70 kg)): 29% | higher V c ([3]; 90th percentile of body weight (95 kg) vs median weight (70 kg)): 39% | decrease in CL ([3]; APACHE II score > 10): 19.7% | increase in CL for an increase of 100 mL/min in CrCL over 80 mL/min ([3]; CrCL ≥ 80 mL/min): 27.9% | clearance ([3]; CL, patients with ESRD, off dialysis): 1.13 mL/min | clearance ([3]; CL, patients with ESRD, on‐dialysis): 347 mL/min | clearance ([3]; θ1: CL, typical value): 170 mL/min | clearance ([3]; θ6: CL estimate for patients on dialysis): 347 mL/min | θ9: Population effect on V c (cIAI, phase II), V c*(1 + θ9) ([3]; in vivo): 1.92 | θ11: Population effect on V c (cUTI), V c*(1 + θ11) ([3]; in vivo): 0.434 | θ12: Population effect on V c (cIAI, phase III, NP), V c*(1 + θ11) ([3]; in vivo): 0.329 | θ14: WT on V c (WT/70.0)^θ14 ([3]; in vivo): 1.08 | θ 28: NPv on V c,V c*(1 + θ28) ([3]; in vivo): 0.175 | increase in AUC [3, 8]: 9.5% | lower CL [3, 8]: 8.65% | higher V c ([3]; patients with NPv vs non‐NPv patients): 17.5% | higher V c ([3]; patients with cUTI vs healthy subjects): 43.4% | higher V c ([3]; phase III patients with cIAI and patients with NP vs healthy subjects): 32.9% | θ2: V c ([3]; typical value): 11.1 L | θ3: Q ([3]; typical value): 5.44 L/h | θ4: V p ([3]; typical value): 6.91 L | transporter substrate [4]: substrate | C T that restored the activity of ceftazidime ([5]; avibactam concentration fixed, varying concentrations of ceftazidime): ≤ 0.5 mg/L | C T sufficient to restore ceftazidime activity ([5]; fixed concentrations of ceftazidime, varying concentrations of avibactam): 0.15 to 0.28 mg/L | free plasma concentrations as % of total plasma concentrations [6]: 92% | %fT > 1 mg/L associated with 2log10 reductions in bacterial density [7]: 20–55% | %fT > 1 mg/L associated with stasis [7]: 16–24%
